Source: publication PMC9341091, “Design, synthesis, and molecular docking studies of diphenylquinoxaline-6-carbohydrazide hybrids as potent α-glucosidase inhibitors” (BMC Chemistry, 2022)
In brackets after ≈: the same amount, converted by molar mass. Like-named read-outs stand apart in the source and are kept apart here.

Assays:
[1] = biological target: α-glucosidase from Saccharomyces cerevisiae (Saccharomyces cerevisiae, UniProt P53341); assay: biochemical
Protocol: The α-glucosidase inhibitory effects of diphenylquinoxaline-6-carbohydrazide hybrids 7a–o were determined by previously reported method. […] Later on, 25 μL of the substrate (p-nitrophenyl glucopyranoside, 4 mM) was added to each well of the plate, and incubation was continued for 20 min at 37 ^◦C.

[2] = biological target: α-glucosidase; parameters: method as in doi:10.1039/C9NJ02580D; details: compound A versus standard acarbose; cited from earlier work
[3] = biological target: α-glucosidase; parameters: method as in PMID 24398385; details: cited from earlier work
[4] = biological target: α-glucosidase (Saccharomyces cerevisiae, UniProt P53341); assay: Enzyme kinetic studies (Lineweaver–Burk plot, secondary plot); type: biochemical
α-glucosidase (Saccharomyces cerevisiae, UniProt P53341), sequence (P53341 whole entry): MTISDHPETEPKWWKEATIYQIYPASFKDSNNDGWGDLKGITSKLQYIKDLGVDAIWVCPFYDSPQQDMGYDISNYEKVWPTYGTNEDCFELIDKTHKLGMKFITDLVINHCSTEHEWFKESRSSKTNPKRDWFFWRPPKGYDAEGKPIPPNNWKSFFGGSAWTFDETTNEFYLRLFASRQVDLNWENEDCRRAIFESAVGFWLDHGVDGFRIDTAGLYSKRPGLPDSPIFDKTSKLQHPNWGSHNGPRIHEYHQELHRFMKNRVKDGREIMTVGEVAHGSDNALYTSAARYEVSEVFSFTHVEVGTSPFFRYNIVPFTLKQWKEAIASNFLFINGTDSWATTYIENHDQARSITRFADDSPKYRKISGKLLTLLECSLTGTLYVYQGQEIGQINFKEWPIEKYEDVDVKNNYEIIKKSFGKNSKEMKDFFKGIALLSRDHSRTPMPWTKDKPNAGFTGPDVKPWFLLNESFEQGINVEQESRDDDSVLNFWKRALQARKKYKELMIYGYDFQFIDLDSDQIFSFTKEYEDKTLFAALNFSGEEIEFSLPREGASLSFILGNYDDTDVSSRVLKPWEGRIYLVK
Protocol: A Lineweaver–Burk plot was generated to identify the type of inhibition and the Michaelis–Menten constant (Km) value was determined from the plot between reciprocal of the substrate concentration (1/[S]) and reciprocal of enzyme rate (1/V) over various inhibitor concentrations. The experimental inhibitor constant (Ki) value was constructed by secondary plots of the inhibitor concentration [I] versus Km.

α-glucosidase from Saccharomyces cerevisiae, sequence (P53341 whole entry): as above

Row | Structure (SMILES) | IC50 [1] [µM] | melting point [°C] | further results
1 | COc1cc(C=NNC(=O)c2ccc3nc(-c4ccccc4)c(-c4ccccc4)nc3c2)ccc1O [7j, N'-(4-hydroxy-3-methoxybenzylidene)-2,3-diphenylquinoxaline-6-carbohydrazide] | 358 ± 6.1 | > 250 | –
2 | O=C(NN=Cc1cccc([N+](=O)[O-])c1)c1ccc2nc(-c3ccccc3)c(-c3ccccc3)nc2c1 [7c, N'-(3-nitrobenzylidene)-2,3-diphenylquinoxaline-6-carbohydrazide] | 279 ± 5.8 | > 250 | –
3 | O=C(NN=Cc1cccs1)c1ccc2nc(-c3ccccc3)c(-c3ccccc3)nc2c1 [7o, 2,3-diphenyl-N'-(thiophen-2-ylmethylene)quinoxaline-6-carbohydrazide] | 145 ± 5 | 242 to 246 | –
4 | Cc1nc2ccccc2n(CC(=O)N/N=C/c2ccc(OCCc3cn(CN4CCOCC4)nn3)cc2)c1=O [compound A] | – | – | IC50 [2]: 21.92 µg/mL (≈ 41.3 µM)
5 | COc1ccc(C=NNC(=O)c2ccc3nc(-c4ccccc4)c(-c4ccccc4)nc3c2)cc1 [7g, N'-(4-methoxybenzylidene)-2,3-diphenylquinoxaline-6-carbohydrazide] | 320 ± 4.9 | > 250 | –
6 | COc1cc(/C=N/NC(=O)c2ccc3nc(-c4ccccc4)c(-c4ccccc4)nc3c2)cc(OC)c1OC [7k, (E)-2,3-diphenyl-N'-(3,4,5-trimethoxybenzylidene)quinoxaline-6-carbohydrazide] | > 750 | – | –
7 | O=C(NN=Cc1cccc2ccccc12)c1ccc2nc(-c3ccccc3)c(-c3ccccc3)nc2c1 [7n, N'-(naphthalen-1-ylmethylene)-2,3-diphenylquinoxaline-6-carbohydrazide] | 388 ± 6.5 | > 250 | –
8 | COc1cccc(C=NNC(=O)c2ccc3nc(-c4ccccc4)c(-c4ccccc4)nc3c2)c1[N+](=O)[O-] [7h, N'-(3-methoxy-2-nitrobenzylidene)-2,3-diphenylquinoxaline-6-carbohydrazide] | 305 ± 7.2 | > 250 | –
9 | O=C(NN=Cc1ccccc1[N+](=O)[O-])c1ccc2nc(-c3ccccc3)c(-c3ccccc3)nc2c1 [7b, N'-(2-nitrobenzylidene)-2,3-diphenylquinoxaline-6-carbohydrazide] | 175 ± 5.9 | > 250 | –
10 | O=C(N/N=C1/c2ccccc2-c2nc3ccccc3nc21)c1ccc(Br)cc1 [compound B] | – | – | IC50 ([3]; compound B versus standard acarbose): 22.67 ± 0.1 µM
11 | O=C(NN=Cc1cccc(Oc2ccccc2)c1)c1ccc2nc(-c3ccccc3)c(-c3ccccc3)nc2c1 [7l, N'-(3-phenoxybenzylidene)-2,3-diphenylquinoxaline-6-carbohydrazide] | 453 ± 4.7 | > 250 | –
12 | O=C(NN=Cc1cccc(F)c1)c1ccc2nc(-c3ccccc3)c(-c3ccccc3)nc2c1 [7e, N'-(3-fluorobenzylidene)-2,3-diphenylquinoxaline-6-carbohydrazide] | – | > 250 | IC50 ([1]; in vitro α-glucosidase inhibition, substrate p-nitrophenyl glucopyranoside, mean ± SEM, at least three experiments, read-out: IC50): 111 ± 6 µM; type of inhibition ([4]; Lineweaver–Burk plot, Km increased, Vmax unchanged): competitive; Ki ([4]; secondary plot of Km versus inhibitor concentration (0, 30, 70 and 110 µM), read-out: inhibition constant Ki): 107 µM
13 | O=C(NN=Cc1ccccc1)c1ccc2nc(-c3ccccc3)c(-c3ccccc3)nc2c1 [7a, N'-benzylidene-2,3-diphenylquinoxaline-6-carbohydrazide] | 155 ± 3 | 230 to 232 | –
14 | O=C(NN=Cc1ccc([N+](=O)[O-])cc1)c1ccc2nc(-c3ccccc3)c(-c3ccccc3)nc2c1 [7d, N'-(4-nitrobenzylidene)-2,3-diphenylquinoxaline-6-carbohydrazide] | 240 ± 7.5 | > 250 | –
15 | O=C(NN=Cc1cc([N+](=O)[O-])ccc1Cl)c1ccc2nc(-c3ccccc3)c(-c3ccccc3)nc2c1 [7i, N'-(2-chloro-5-nitrobenzylidene)-2,3-diphenylquinoxaline-6-carbohydrazide] | 231 ± 5.5 | > 250 | –
16 | O=C(NN=Cc1ccc(Cl)cc1)c1ccc2nc(-c3ccccc3)c(-c3ccccc3)nc2c1 [7f, N'-(4-chlorobenzylidene)-2,3-diphenylquinoxaline-6-carbohydrazide] | 260 ± 4.5 | 234 to 238 | –
17 | O=C(NN=Cc1cc2c(cc1[N+](=O)[O-])OCO2)c1ccc2nc(-c3ccccc3)c(-c3ccccc3)nc2c1 [7m, N'-((6-nitrobenzo[d][1,3]dioxol-5-yl)methylene)-2,3-diphenylquinoxaline-6-carbohydrazide] | 353.7 ± 3.5 | > 250 | –
18 | Cc1ccc(NC(=O)Cn2c(=O)c(C)nc3ccccc32)c([N+](=O)[O-])c1 [compound C] | – | – | IC50 ([3]; compound C versus standard acarbose): 83.8 ± 0.89 µM
